In ChEMBL document CHEMBL1201862, “PubChem BioAssay data set” (2004):
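48-hour exposure; five concentrations; linearly interpolated endpoints. GI50 marks 50% less growth.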 Activity calls are given as the source filed them. Cut-off read from the data, not from the text of the source: active = GI50 up to about 1.1 µM and inactive = higher.

Legend:
Assay in all cases: NCI-60 cell line screen, 48 h
IGROV-1 = test system: IGROV-1
HCT-116 = test system: HCT-116
RPMI-8226 = test system: RPMI-8226
CAKI-1 = test system: CAKI-1
UACC-62 = test system: UACC-62
SNB-19 = test system: SNB-19
OVCAR-5 = test system: OVCAR-5
HOP-92 = test system: HOP-92
SF-295 = test system: SF-295
OVCAR-8 = test system: OVCAR-8
KM12 = test system: KM12
EKVX = test system: EKVX
SW-620 = test system: SW-620
SK-MEL-5 = test system: SK-MEL-5
UACC-257 = test system: UACC-257
ACHN = test system: ACHN
COLO 205 = test system: COLO 205
SF-268 = test system: SF-268
MOLT-4 = test system: MOLT-4
OVCAR-4 = test system: OVCAR-4

Measured: GI50

COc1cc(/C=C\c2cccnc2)cc(OC)c1OC
inactive: IGROV-1 57.9 µM | HCT-116 58.2 µM | RPMI-8226 19.6 µM | CAKI-1 44.5 µM | UACC-62 46.3 µM | SNB-19 83.9 µM | OVCAR-5 > 100 µM | HOP-92 26 µM | SF-295 36.6 µM | OVCAR-8 63.2 µM | KM12 36.1 µM | EKVX 38.1 µM | SW-620 38.3 µM | SK-MEL-5 18.9 µM | UACC-257 68.4 µM | ACHN > 100 µM | COLO 205 29.3 µM | SF-268 77.1 µM | MOLT-4 9.84 µM | OVCAR-4 > 100 µM

COc1ccc(C2c3cc4c(cc3OC(N3CCOCC3)C2C)OCO4)cc1OC (stereo not given)
inactive: IGROV-1 7.64 µM | HCT-116 4.75 µM | RPMI-8226 6.18 µM | CAKI-1 3.07 µM | UACC-62 5.48 µM | SNB-19 7.18 µM | OVCAR-5 48.6 µM | HOP-92 8.95 µM | SF-295 4.39 µM | OVCAR-8 20.4 µM | KM12 4.46 µM | EKVX 24.4 µM | SW-620 4.74 µM | SK-MEL-5 4.06 µM | UACC-257 16.7 µM | ACHN 10.3 µM | COLO 205 4.76 µM | SF-268 13.9 µM | MOLT-4 4.48 µM | OVCAR-4 15.8 µM

C=C(Cl)C(Br)(CCl)CCC(Br)C(C)(C)Cl (stereo not given)
inactive: IGROV-1 5.82 µM | HCT-116 1.72 µM | RPMI-8226 2.06 µM | CAKI-1 4.95 µM | UACC-62 3.37 µM | SNB-19 3.48 µM | OVCAR-5 7.21 µM | HOP-92 9.75 µM | SF-295 5.77 µM | OVCAR-8 3.38 µM | KM12 6.87 µM | EKVX 5.58 µM | SW-620 1.71 µM | SK-MEL-5 2.47 µM | UACC-257 2.67 µM | ACHN 7.96 µM | COLO 205 4.53 µM | SF-268 2.93 µM | MOLT-4 1.6 µM | OVCAR-4 8.83 µM

NCCCCNCCCNC(=O)c1nc(-c2nc(CCN)sc2Cl)sc1Cl
inactive: IGROV-1 > 100 µM | HCT-116 9.48 µM | RPMI-8226 31.3 µM | CAKI-1 > 100 µM | UACC-62 > 100 µM | SNB-19 > 100 µM | OVCAR-5 > 100 µM | HOP-92 > 100 µM | SF-295 59.8 µM | OVCAR-8 > 100 µM | KM12 27.5 µM | EKVX > 100 µM | SW-620 16.7 µM | SK-MEL-5 > 100 µM | UACC-257 > 100 µM | ACHN > 100 µM | COLO 205 > 100 µM | SF-268 6.98 µM | MOLT-4 > 100 µM | OVCAR-4 29.9 µM
